Experimental data taken from ChEMBL document CHEMBL4837259, “Comprehensive Approach of 19F Nuclear Magnetic Resonance, Enzymatic, and In Silico Methods for Site-Specific Hit Selection and Validation of Fragment Molecules that Inhibit Methionine γ-Lyase Activity” (J Med Chem, 2021).
Active and inactive are the calls of the source. No cut-off for these calls is given here.

Tests used:
[1] = target: T1, L-methionine gamma-lyase (Fusobacterium nucleatum subsp. nucleatum) (UniProt Q8RDT4); test: Inhibition of Fusobacterium nucleatum ATCC 25586 recombinant wild type MGL expressed in Escherichia coli BL21 (DE3) assessed as decrease in signal intensity by 19F NMR based competition assay relative to control; parameters: concentration or dose not given beside the values
T1 sequence (whole entry): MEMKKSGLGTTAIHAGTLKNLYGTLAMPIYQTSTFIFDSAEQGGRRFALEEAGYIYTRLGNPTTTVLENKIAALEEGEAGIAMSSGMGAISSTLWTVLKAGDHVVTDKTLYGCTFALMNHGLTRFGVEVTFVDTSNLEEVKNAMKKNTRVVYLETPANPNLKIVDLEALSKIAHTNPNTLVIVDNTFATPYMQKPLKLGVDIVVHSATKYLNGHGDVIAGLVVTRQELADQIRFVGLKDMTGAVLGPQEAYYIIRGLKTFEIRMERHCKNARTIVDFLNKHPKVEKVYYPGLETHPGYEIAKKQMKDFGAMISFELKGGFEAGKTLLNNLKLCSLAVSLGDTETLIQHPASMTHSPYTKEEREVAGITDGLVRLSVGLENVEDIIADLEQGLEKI

[2] = target: T1, L-methionine gamma-lyase (Fusobacterium nucleatum subsp. nucleatum); test: Inhibition of Fusobacterium nucleatum ATCC 25586 recombinant wild type MGL expressed in Escherichia coli BL21 (DE3) assessed as formation of 2-ketobutyrate using L-methionine as substrate by enzymatic assay; parameters: concentration or dose not given beside the values; conditions: concentration not given here
[3] = system: Fusobacterium nucleatum; test: Inhibition of Fusobacterium nucleatum ATCC 25586 recombinant MGL Y56F mutant expressed in Escherichia coli BL21 (DE3) assessed as decrease in signal intensity by measuring recovery ratio by 19F NMR based competition assay relative to wild type; parameters: concentration or dose not given beside the values
[4] = system: Fusobacterium nucleatum; test: Inhibition of Fusobacterium nucleatum ATCC 25586 recombinant MGL R58A mutant expressed in Escherichia coli BL21 (DE3) assessed as decrease in signal intensity by measuring recovery ratio by 19F NMR based competition assay relative to wild type; parameters: scale not given: the % may be the effect or the level left
[5] = system: Fusobacterium nucleatum; test: Inhibition of Fusobacterium nucleatum ATCC 25586 recombinant MGL R58K mutant expressed in Escherichia coli BL21 (DE3) assessed as decrease in signal intensity by measuring recovery ratio by 19F NMR based competition assay relative to wild type; parameters: scale not given: the % may be the effect or the level left
[6] = system: Fusobacterium nucleatum; test: Inhibition of Fusobacterium nucleatum ATCC 25586 recombinant MGL Y111F mutant expressed in Escherichia coli BL21 (DE3) assessed as decrease in signal intensity by measuring recovery ratio by 19F NMR based competition assay relative to wild type; parameters: concentration or dose not given beside the values
[7] = system: Fusobacterium nucleatum; test: Inhibition of Fusobacterium nucleatum ATCC 25586 recombinant MGL C113S mutant expressed in Escherichia coli BL21 (DE3) assessed as decrease in signal intensity by measuring recovery ratio by 19F NMR based competition assay relative to wild type; parameters: scale not given: the % may be the effect or the level left
[8] = system: Fusobacterium nucleatum; test: Inhibition of Fusobacterium nucleatum ATCC 25586 recombinant MGL K238A mutant expressed in Escherichia coli BL21 (DE3) assessed as decrease in signal intensity by measuring recovery ratio by 19F NMR based competition assay relative to wild type; parameters: concentration or dose not given beside the values
[9] = system: Fusobacterium nucleatum; test: Inhibition of Fusobacterium nucleatum ATCC 25586 recombinant MGL R373A mutant expressed in Escherichia coli BL21 (DE3) assessed as decrease in signal intensity by measuring recovery ratio by 19F NMR based competition assay relative to wild type; parameters: scale not given: the % may be the effect or the level left
[10] = system: Fusobacterium nucleatum; test: Inhibition of Fusobacterium nucleatum ATCC 25586 recombinant MGL R373K mutant expressed in Escherichia coli BL21 (DE3) assessed as decrease in signal intensity by measuring recovery ratio by 19F NMR based competition assay relative to wild type; parameters: concentration or dose not given beside the values

Row | SMILES | Activity [1] [%] | inhibition [2] [%] | Activity [3] | Activity [4] | Activity [5] | Activity [6] | Activity [7] | Activity [8] | Activity [9] | Activity [10]
1 | CC(C)(C)OC(=O)N1CCC(CN)(Cc2ccc(F)cc2)CC1 | 70 | 27.7 | 80% | Active | 50% | inactive | 50% | inactive | Active | Active
2 | CC(C)(CC(=O)O)c1ccc(C(F)(F)F)cc1 | 62 | 11.3 | 80% | 80% | 80% | 80% | Active | 50% | 50% | Active
3 | O=C(O)c1ccc(OC(F)F)nc1 | 78 | 12.6 | 80% | 50% | 50% | Active | Active | Active | 80% | Active
4 | CC(C)(C)OC(=O)N1CCC(CN)(c2ccc(F)cc2)CC1 | 20 | 12.9 | 80% | 50% | 50% | 50% | Active | 50% | Active | Active
5 | O=C(O)c1cn(-c2ccccc2F)cn1 | 26 | -5.3 | Active | 80% | 80% | Active | Active | inactive | 50% | Active
6 | CCOC(=O)c1nc(-c2ccc(F)cc2)no1 | 84 | 33.1 | 80% | 80% | 50% | 50% | Active | Active | 80% | 50%
7 | O=C(O)c1ccnc(OC(F)F)c1 | 67 | 1.5 | 80% | 80% | 80% | Active | 50% | Active | 80% | 50%
8 | Cc1ccc2[nH]cc(C(C(=O)O)C(F)(F)F)c2c1 (configuration not stated) | 48 | 9.3 | 80% | 80% | 80% | 80% | inactive | Active | 50% | Active
9 | CC(C)(C)OC(=O)N1CCC(CN)(Cc2ccccc2C(F)(F)F)CC1 | 85 | 56.5 | 80% | 50% | 80% | Active | 80% | Active | Active | Active
10 | CC(C)(C)OC(=O)N1CCC(CN)(c2ccccc2C(F)(F)F)CC1 | 75 | 41 | 80% | Active | 80% | Active | 50% | 50% | Active | Active
11 | CC(C)(C)OC(=O)N[C@H]1CC[C@H](N2Cc3cccc(F)c3C2=O)CC1 | 100 | 53.7 | 50% | Active | Active | Active | Active | Active | Active | Active
12 | O=C(O)c1cnn(-c2ccc(F)cc2)c1 | 69 | -0.6 | 80% | 80% | 50% | 80% | Active | 50% | 80% | Active
13 | O=C(O)c1cn(-c2ccc(C(F)(F)F)cc2)cn1 | 87 | 45.3 | 80% | 50% | 80% | 50% | Active | Active | 80% | Active
14 | CC(C)(C)OC(=O)N1CCC(CN)(Cc2ccccc2F)CC1 | 63 | 30.1 | 80% | Active | 50% | inactive | 80% | inactive | inactive | Active
15 | O=C(O)c1cc(C(F)(F)F)nn1-c1ccccc1 | 49 | 23.9 | 80% | 80% | 80% | 80% | 50% | Active | 50% | Active
16 | O=C(O)c1cc(OC(F)(F)F)ccn1 | 4 | -6.8 | 80% | 80% | 80% | 50% | Active | Active | 80% | Active
17 | CC(C)(C)OC(=O)N[C@H]1CC[C@H](N2Cc3ccc(F)cc3C2=O)CC1 | 70 | -1.2 | 50% | Active | 50% | Active | 50% | Active | Active | Active
18 | CC(C)(C)OC(=O)N1CCC(CN)(Cc2ccc(C(F)(F)F)cc2)CC1 | 78 | 78.3 | 80% | 50% | 50% | Active | 50% | Active | Active | Active
19 | O=C(O)c1cc(F)c(OCC2CC2)c(F)c1 | 77 | 9.5 | 80% | 80% | 50% | 80% | Active | Active | 80% | Active
20 | CC(C)(Cc1cccc(C(F)(F)F)c1)C(=O)O | 64 | 27.5 | 80% | 80% | 80% | 50% | Active | 50% | 80% | Active
21 | CC(C)(Cc1ccc(C(F)(F)F)cc1)C(=O)O | 55 | 8.3 | 80% | 80% | 50% | 80% | Active | 80% | 50% | inactive
22 | Fc1cccc(-c2nnc3ccc(Br)cn23)c1 | 89 | 7.2 | – | – | – | – | – | – | – | –
